# Experimental data taken from patent publication US10869844B2, “Methods for the treatment of depression” (Janssen Pharmaceutica NV, priority 2014, dated 2020).
# Like-named read-outs stand apart in the source and are kept apart here.
# Assays:
# [1] = tested on: adult subjects with TRD; conditions: for Day 17 responders who maintained response status up to Day 35, % / Day 17 responders who maintained response status up to Day 35, number: all subjects
# [2] = tested on: adult subjects with TRD; format: in vivo, human; conditions: for Non-responders % / Non-responders N / Responders % (MADRS total score reduction >50% TRD2001, ≥50% TRD2002) / Responders N (MADRS total score reduction >50% TRD2001, ≥50% TRD2002): after first infusion (Day 2 TRD2001, Day 3 or 4 TRD2002)
# Description: (§1) Association between changes in MADRS total score from baseline and the SNP rs6265 after a single dose was evaluated in placebo subjects and active subjects using an ANCOVA model under a dominant model with baseline MADRS total score, and grouped genotype (Val/Val or Met carrier). A statistically significant result was found in active subjects (p=0.02).
# as §1, with “the % responders” for “changes in MADRS total score from baseline”, “a logistic regression” for “an ANCOVA”, “score” for “score,”, “(p=0.03).” for “(p=0.02).”
# Association between the % remitters and the SNP rs6265 after a single dose was evaluated in placebo subjects and as well as in active subjects using a logistic regression model under a dominant model with baseline MADRS total score and grouped genotype (Val/Val or Met carrier).
# [3] = tested on: patients with major depressive disorders; conditions: cited from earlier work
smiles,measurement,setting,value
"CNC1(c2ccccc2Cl)CCCCC1=O (racemic) [Ketamine, ketamine]","Day 17 responders who maintained response status up to Day 35, %",[1]; Met carriers (of 7),42.9%
same,"Day 17 responders who maintained response status up to Day 35, number",[1]; Met carriers (of 7),3
same,"Day 17 responders who maintained response status up to Day 35, %",[1]; Val/Val (of 12),91.7%
same,"Day 17 responders who maintained response status up to Day 35, number",[1]; Val/Val (of 12),11
same,"Responders on Day 17, number",[1]; among all subjects (Val/Val and Met carriers),19
same,"Responders on Day 17, number","[1]; among all subjects, Met carriers",7
same,"Responders on Day 17, number","[1]; among all subjects, Val/Val",12
same,Non-responders %,[2]; Met carriers,92.3%
same,Non-responders N,[2]; Met carriers,12
same,"Responders % (MADRS total score reduction >50% TRD2001, ≥50% TRD2002)",[2]; Met carriers,7.7%
same,"Responders N (MADRS total score reduction >50% TRD2001, ≥50% TRD2002)",[2]; Met carriers,1
same,Non-responders %,[2]; Val/Val,71.4%
same,Non-responders N,[2]; Val/Val,15
same,"Responders % (MADRS total score reduction >50% TRD2001, ≥50% TRD2002)",[2]; Val/Val,28.6%
same,"Responders N (MADRS total score reduction >50% TRD2001, ≥50% TRD2002)",[2]; Val/Val,6
same,Clinical response associated with Met allele of Val66Met rs6265,"[2]; acute, single dose administration",smaller clinical response
same,"Likelihood of antidepressant response, Val/Val BDNF allele at rs6265 vs Met carriers","[3]; MDD patients, LAJE, Biol. Psychiatry 2012",more likely to exhibit antidepressant response to ketamine than Met carriers
same,Onset of rapid antidepressant effect,[3]; patients with major depressive disorders,within two hours
